Here are results for 24 molecules from patent US20140288110A1, “PPAR MODULATORS” (EVOLVA SA, priority 2006, published 2014).

The test system of assay [1] is 3T3-L1 / MEFs. Description: Adipocyte differentiation assay, induction, Oil Red O staining. It counts as cell-based, mouse. Details: key to Adip.: 0: representing similar results to DPD; −1: representing even less adipocyte differentiation; +1: representing more adipocyte differentiation (both relative to DPD). The note with it: for Adip.: adipocyte differentiation relative to DPD (SN1), Oil Red O staining; for induction of adipocyte differentiation (red staining), in words: induction assay, Oil Red O. How it is done: This example describes an assay for determining adipocyte differention. Compounds are tested to see whether they induce adipocyte differentiation and also to see whether they inhibit adipocyte differention.
MEFs were grown in AmnioMax basal medium (Gibco) supplemented with 7.5% Amniomax supplement C-100 (Gibco), 7.5% Fetal Bovine Serum (FBS), 2 mM Glutamine, 62.5 μg/ml penicillin and 100 μg/ml Streptomycin (growth medium). At confluence, MEFs were induced to differentiation in growth medium with the addition of 1 microM dexamethasone (Sigma) 0.5 mM isobutylmethylxanthine (Sigma), 5 microg/ml insulin (Sigma) and 10 microM test compound dissolved in DMSO or DMSO alone. Medium was subsequently renewed every 48 hrs with growth media supplemented with 5 microg/ml Insulin and ligand or DMSO.
Briefly, to test compounds as inducers of adipocyte differentiation, 3T3-L1 are grown to confluence in DMEM with 10% Calf serum (CS), typically in 24 well dishes. At 2 days post confluence (day 0), cells are induced to differentiate with DMEM supplemented with 10% fetal bovine serum (FBS), 1 μM dexamethasone and the test compound ([…], 1 and 10 microM). BRL49653 (1.0 μM dissolved in 100% Me2SO) is used as a positive control. After 48 h, the cells are re-fed with DMEM containing 10% FBS supplemented with the test compound or the positive control. From day 4, cells are grown in DMEM with 10% FBS and are changed every second day until day 8. At day 8, cells are stained with Oil Red O as described below.
Cells cultured as described above are used for Oil Red staining. Dishes are washed in PBS and cells were fixed in 3.7% paraformaldehyde for 1 h and stained with oil red O as described in (Hansen et al 1999). Oil red O solution stock solution is prepared by dissolving 0.5 g of Oil Red O (Sigma) in 100 ml of isopropanol. Oil re O working solution is prepared by diluting a stock solution with water (6:4) followed by filtration.
Table II summarizes results obtained with different analogs of DPD (SN1), “0” representing similar results to DPD, “−1” representing even less adipocyte differentiation, “+1” representing more adipocyte differentiation (both relative to DPD) and “−” meaning not assayed.

For assay [2], the system named is PPARgamma ligand-binding domain (Gal4-PPARgammaLBD). Kind of assay: PPARgamma transactivation assay (Gal4-PPARgammaLBD, UASx4-TK luc reporter). It counts as cell-based. As to conditions: for PPAR: PPARgamma activating activity compared with 10 microM DPD (SN1). An excerpt: This is an example of a transactivation assay for determining PPAR gamma modulating activity.
The UASx4-TK-luc reporter construct (where UAS refers to “upstream activator sequence”) contains four Gal4-responsive elements. The plasmid Gal4-PPARgammaLBD encodes a Gal4-DBD-PPARgamma-LBD fusion protein (i.e. the DNA-binding domain, DBD, of Gal4 fused to the ligand-binding domain, LBD, of PPARgamma) capable of transactivating the UASx4-TK-luc reporter plasmid by binding to the UAS. The CMV-beta-galactosidase plasmid (where CMV is cytomegalovirus) is used for normalization of experimental values.
The cells were replated, typically in 24 well plates, so that at the time of transfection the cells are 50-70% confluent.
Briefly, per well in a 24 well plate, UASx4TKluc (0.2 microg) Gal4-PPARgammaLBD (or pM-hPPARgamma-LBD; 0.1 microg) and CMV-beta-galactosidase (0.05 microg) in 30 μL DMEM (free of serum and antibiotics) is mixed with 30 microL DMEM (free of serum and antibiotics) containing 1 microL metafectenein. The mixture is incubated at room temperature for 20 min to allow formation of nucleic acid-lipid complexes and then approximately 60 microL is added to each well containing the 50-60% confluent cells. […] Cells were harvested after 12-24 hours and luciferase and beta-galactosidase activities were measured according to standard protocols.
“−” means that testing was not performed.

In assay [3] the target is T1, mPPARalphaLBD (Mus musculus, UniProt P23204).
T1 construct: expressed in transfected cells
T1 sequence (P23204 239-466 limits assumed): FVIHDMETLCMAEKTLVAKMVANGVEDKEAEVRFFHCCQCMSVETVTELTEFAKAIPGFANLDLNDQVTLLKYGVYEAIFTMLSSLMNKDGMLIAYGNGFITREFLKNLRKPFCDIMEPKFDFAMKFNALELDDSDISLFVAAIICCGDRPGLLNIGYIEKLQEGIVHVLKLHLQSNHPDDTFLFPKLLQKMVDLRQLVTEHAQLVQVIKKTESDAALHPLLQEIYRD
Kind of assay: PPARalpha transactivation assay (mPPARalphaLBD). It counts as cell-based. The protocol:
This example describes a transactivation assay for determining PPARalpha modulating activity.
DPD and other ligands are tested for their ability to transactivate PPAR alpha essentially as described in Example 1.

`O=C(O)CCCCCCC[C@@H]1CO[C@H](c2ccccc2Cl)O[C@@H]1c1ccccc1O` [compound 31] yielded an Adip. in assay [1] of 0. In the case of `O=C(O)CC/C=C\C[C@@H]1COC(c2coc3ccc(Cl)cc3c2=O)O[C@@H]1c1ccccc1O` (stereo partly drawn) [compound 13], the “PPAR gamma modulating activity, in words” value in assay [2] was “higher potency”. Also, in assay [1], the Adip. is listed as −1 and the “induction of adipocyte differentiation (red staining), in words” value is reported as “low or no adipocyte differentiation”. As for `CN(CCOc1ccc(CC2SC(=O)NC2=O)cc1)c1ccccn1` (stereo not drawn) [rosiglitazone, reference compound], the “PPAR transactivation, fold higher than with DMSO alone” value in assay [2] (Gal4-PPARgammaLBD, DPD at 10 microM) was “over 40 fold”. For the molecule `O=C(O)CC/C=C\C[C@@H]1CO[C@H](C2CCCCC2)O[C@@H]1c1ccccc1O` [compound 21], the Adip. in assay [1] worked out at 0. As to `CC(C)(Sc1ccc(CCN(CCCCC2CCCCC2)C(=O)NC2CCCCC2)cc1)C(=O)O` [GW7647, reference compound], the “increase of PPAR alpha transactivation” value in assay [3] is “over 2 fold”. In the case of `COc1ccccc1[C@H]1OC(C)(C)OC[C@H]1C/C=C\CCCCC(=O)O` [compound 37], in assay [2], the PPAR result is on record as “Inactive”. This molecule returned an Adip. in assay [1] of 0. The molecule `O=C(O)CC/C=C\C[C@@H]1COC(c2ccccc2F)O[C@@H]1c1ccccc1O` (mixture of isomers) [compound 4] came in with an Adip. in assay [1] of 0.

As for `O=C(O)CCC/C=C\C[C@@H]1CO[C@H](c2ccccc2Cl)O[C@@H]1c1ccccc1O` [compound 23], the Adip. entry in assay [1] is “+1”. With `O=C(O)CC/C=C\C[C@@H]1COC2(CCNCC2)O[C@@H]1c1ccccc1O` [compound 8], the PPAR entry in assay [2] is “Boc derivative Inactive”. The same molecule had an Adip. in assay [1] of −1. For `COc1ccc(Oc2ccccc2C2OC[C@@H](C/C=C\CCC(=O)O)[C@@H](c3ccccc3O)O2)cc1` (mixture of isomers) [compound 7], in assay [2], the “PPAR gamma modulating activity, in words” value is on record as “higher potency”. For the same molecule, in assay [1], the Adip. turned out to be 0 and the “induction of adipocyte differentiation (red staining), in words” value is reported as “low or no adipocyte differentiation”. For the molecule `COc1ccccc1[C@H]1O[C@@H](c2c(Cl)cccc2Cl)OC[C@H]1C/C=C\CCC(=O)O` [compound 28], in assay [2], the PPAR result is “Inactive”.

On to `O=C(O)CC/C=C\C[C@@H]1CO[C@H](c2ccccc2Cl)O[C@@H]1c1ccccc1O` [compound 1], for which, in assay [1], the Adip. was 0. `O=C(O)CC/C=C\C[C@@H]1COC(c2cccc(Cl)c2Cl)O[C@@H]1c1ccccc1O` (stereo partly drawn) [compound 2] came in with an Adip. in assay [1] of 0. Molecule `COc1cccc([C@H]2OC[C@@H](C/C=C\CCC(=O)O)[C@@H](c3ccccc3O)O2)c1OC` (mixture of isomers) [compound 19] showed an Adip. in assay [1] of 0.

In turn, `O=C(O)CC/C=C\C[C@@H]1COC2(CCCCC2)O[C@@H]1c1ccccc1O` [compound 6] yielded an Adip. in assay [1] of 0. With `O=C(O)CC/C=C\C[C@@H]1COC(c2ccccc2Cl)O[C@@H]1c1ccccc1O` (stereo partly drawn) [compound 27], the PPAR entry in assay [2] is on record as “Inactive”. Molecule `O=C(O)CC/C=C\C[C@@H]1COC(c2cccc3ccccc23)O[C@@H]1c1ccccc1O` (stereo partly drawn) [compound 9] yielded an Adip. in assay [1] of 0.

In assay [1], `COc1ccccc1[C@H]1OC[C@@H](C/C=C\CCC(=O)O)[C@@H](c2ccccc2O)O1` [compound 18] returned an Adip. of −1. For the molecule `O=C(O)CC/C=C\C[C@@H]1COC(c2ccccc2-c2ccccc2)O[C@@H]1c1ccccc1O` (mixture of isomers) [compound 10], in assay [2], the “PPAR gamma modulating activity, in words” value is given as “PPAR gamma antagonist” and the PPAR entry is on record as “Antagonist”. Moreover, the Adip. in assay [1] turned out to be 0. `C/C=C/CC1OC[C@@H](C/C=C\CCC(=O)O)[C@@H](c2ccccc2O)O1` (stereo partly drawn) [compound 12]: the Adip. in assay [1] is listed as −1. `O=C(O)CC/C=C\C[C@@H]1COC(c2cccc3c2OCO3)O[C@@H]1c1ccccc1O` (mixture of isomers) [compound 5]: in assay [2], the PPAR entry is “P−”. The Adip. in assay [1] is reported as 0. As to `CC(C)[C@H]1OC[C@@H](C/C=C\CCC(=O)O)[C@@H](c2ccccc2O)O1` [compound 20], the Adip. in assay [1] is recorded as 0. `CC1(C)OC[C@@H](C/C=C\CCCCC(=O)O)[C@@H](c2ccccc2O)O1` [compound 36]: the PPAR entry in assay [2] is “Inactive”. `CCCCCC1OC[C@@H](C/C=C\CCC(=O)O)[C@@H](c2ccccc2O)O1` (stereo partly drawn) [compound 11]: in assay [1], the Adip. result is reported as “+1”.
